Results taken from patent US8518989B2, “Prodrugs of short-chain fatty acids and treatment methods” (Georgia Health Sciences University Research Institute, Inc., priority 2005, dated 2013).
Read-outs that look alike come from different tables or passages of the source.

Experiments:
human SLC5A8 [1] = target: T1, human SLC5A8 (Homo sapiens, UniProt Q8N695, F251V/V193I); test: Uptake of radiolabeled short-chain fatty acids in Xenopus oocytes injected with SLC5A8 cRNA; format: cell-based; parameters: Uptake, uninjected oocytes / Uptake, cRNA-injected oocytes: unit not given here; conditions: 1 h incubation; for Uptake, cRNA-injected oocytes: SLC5A8 cRNA-injected oocytes; for Uptake, uninjected oocytes: uninjected control oocytes
T1 construct: We amplified the coding region of SLC5A8 mRNA by RT-PCR using human intestinal mRNA as the template; expressed in transfected cells; host or cells: Xenopus laevis oocytes, 50 ng capped cRNA from the pGH19 construct
T1 sequence (Q8N695 1-610 V193I/F251V): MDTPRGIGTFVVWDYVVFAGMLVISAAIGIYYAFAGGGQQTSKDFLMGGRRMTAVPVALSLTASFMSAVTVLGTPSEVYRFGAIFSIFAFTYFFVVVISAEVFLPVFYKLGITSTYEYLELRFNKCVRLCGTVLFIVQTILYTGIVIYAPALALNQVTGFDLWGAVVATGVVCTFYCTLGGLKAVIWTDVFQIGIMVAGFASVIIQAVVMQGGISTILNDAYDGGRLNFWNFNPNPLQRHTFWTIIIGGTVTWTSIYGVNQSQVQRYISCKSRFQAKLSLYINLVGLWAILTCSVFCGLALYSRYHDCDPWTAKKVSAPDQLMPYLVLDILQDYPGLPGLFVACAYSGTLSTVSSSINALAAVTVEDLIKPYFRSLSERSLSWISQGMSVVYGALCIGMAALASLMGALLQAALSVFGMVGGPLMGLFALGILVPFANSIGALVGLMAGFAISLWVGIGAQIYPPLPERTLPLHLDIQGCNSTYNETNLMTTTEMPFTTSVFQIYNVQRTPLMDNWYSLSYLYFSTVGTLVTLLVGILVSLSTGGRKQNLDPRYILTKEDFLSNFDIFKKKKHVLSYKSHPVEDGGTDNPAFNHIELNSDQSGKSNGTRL
Experimental: (§1) The amplified human SLC5A8 cDNA was expressed heterologously in Xenopus oocytes by cRNA injection. Capped cRNA from SLC5A8 cDNA was synthesized using the mMESSAGE mMACHINE kit (Ambion Inc., Austin, Tex.). Mature oocytes (stage 1V or V) from Xenopus laevis were injected with 50 ng cRNA. Uninjected oocytes served as controls. The oocytes were used for uptake and electrophysiological studies 3-6 days after cRNA injection. Uptake of radiolabeled substrates in uninjected and cRNA-injected oocytes was determined as described previously (Fei, Y. J., et al., (1995) Biochemistry 34, 8744-8751).
(§2) Eight oocytes were used for each uptake measurement. Electrophysiological studies were performed by the two-microelectrode voltage clamp method (11. Wang, H., Fei, et al., (2000) Am. J. Physiol. 278:C1019-C1030; Inoue, K, et al. (2004) Biochem. J. 378:949-957).
Uptake of short-chain fatty acids in uninjected oocytes and in oocytes injected with SLC5A8 cRNA was measured with 1 h incubation. Concentration of substrates (labeled plus unlabeled) varied in the range of 50-500 μM depending on the specific radioactivity of the substrates. Eight oocytes were used for each uptake measurement. Data represent means±SE.

human SLC5A8 [2] = target: T1, human SLC5A8; test: Two-microelectrode voltage clamp of substrate-induced currents in SLC5A8-expressing oocytes; format: cell-based; conditions: for K0.5 for SLC5A8: Na+ 100 mM
Experimental: as §1, §2
Oocytes were perfused with a NaCl-containing buffer (100 mM NaCl, 2 mM KCl, 1 mM MgCl2, 1 mM CaCl2, 3 mM Hepes, 3 mM Mes, and 3 mM Tris, pH 7.5), followed by the same buffer containing different fatty acids. The membrane potential was clamped at −50 mV. The differences between the steady-state currents measured in the presence and absence of substrates were considered as the substrate-induced currents. To investigate the current-membrane potential (I—V) relationship, step changes in membrane potential were applied, each for a duration of 100 ms in 20-mV increments. The kinetic parameter K0.5 (i.e. the substrate concentration necessary for the induction of half-maxima) current) was calculated by fitting the values of the substrate-induced currents to Michaelis-Menten equation. The Na^+-activation kinetics was analyzed by measuring the substrate-specific currents in the presence of increasing concentrations of Na^+. The data were analyzed by the Hill equation to determine the Hill coefficient (h; the number of Na^+ ions involved in the activation process). The kinetic parameters were determined using the computer program Sigma Plot, version 6.0 (SPSS, Inc., Chicago, Ill.). Electrophysiological measurements of substrate-induced currents were repeated at least four times with separate oocytes. The data are presented as means±S.E. of these replicates.
The charge-to substrate transfer ratio was determined for propionate in four different oocytes as described previously (Wang, H., et al. (2000) Am. J. Physiol. 278:C1019-C1030 12. Inoue, K., Fei, Y. J., Zhuang, L., Gopal, E., Miyauchi, S., and Ganapathy, V. (2004) Biochem. J. 378:949-957). The oocytes were perfused with 25 μM propionate (unlabeled plus radiolabeled propionate), and inward currents were monitored over a period of 8-10 min. At the end of the experiment, the amount of propionate transported into the oocytes was calculated by measuring the radioactivity associated with the oocytes. The area within the curve describing the relationship between the time and inward current was integrated to calculate the charge transferred into the oocyte during incubation with propionate. The values for substrate transfer and charge transfer were used to determine the charge to substrate transfer ratio.

rat ATB^0,+ [3] = target: T2, rat ATB^0,+ (Rattus norvegicus, UniProt Q334I2); test: Substrate-induced inward currents in Xenopus oocytes expressing rat ATB0,+ (voltage clamp); format: cell-based; conditions: for Inward currents induced in ATB0,+-expressing oocytes (in words): 5 mM; for Inward currents induced in ATB0,+-expressing oocytes (in words) / K0.5 (substrate concentration for half-maximal current): voltage clamp; for K0.5 (substrate concentration for half-maximal current): ATB0,+-expressing oocytes
T2 sequence (Q334I2 1-640): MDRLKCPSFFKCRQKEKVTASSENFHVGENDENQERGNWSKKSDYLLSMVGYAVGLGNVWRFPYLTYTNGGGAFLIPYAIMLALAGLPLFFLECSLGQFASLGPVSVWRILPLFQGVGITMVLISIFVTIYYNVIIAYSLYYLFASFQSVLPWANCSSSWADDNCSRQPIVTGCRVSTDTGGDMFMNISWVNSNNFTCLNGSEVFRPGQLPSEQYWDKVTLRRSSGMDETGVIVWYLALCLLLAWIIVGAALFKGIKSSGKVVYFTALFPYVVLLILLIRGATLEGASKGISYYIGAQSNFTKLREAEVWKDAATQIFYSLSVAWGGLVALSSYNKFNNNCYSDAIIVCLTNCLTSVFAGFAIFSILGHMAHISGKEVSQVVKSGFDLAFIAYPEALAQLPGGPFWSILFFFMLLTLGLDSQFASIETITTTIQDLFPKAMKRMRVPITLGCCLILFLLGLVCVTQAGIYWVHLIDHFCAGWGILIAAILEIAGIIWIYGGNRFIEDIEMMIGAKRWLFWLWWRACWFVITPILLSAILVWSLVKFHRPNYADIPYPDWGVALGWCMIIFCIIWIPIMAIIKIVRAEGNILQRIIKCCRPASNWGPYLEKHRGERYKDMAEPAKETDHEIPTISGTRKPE
Experimental: Experiments with HRPE cells were repeated at least three times with three independent transfections and transport measurements made in duplicate in each experiment. Electrophysiological measurements of substrate-induced currents were repeated at least three times with separate oocytes. The data are presented as means±S.E.M. of these replicates. The kinetic parameters, Michaelis constant (Kt) and maximal velocity (Vmax) were calculated by fitting the ATB^0,+-specific transport data to the Michaelis-Menten equation describing a single saturable transport system. Na^+ and Cl^−-activation kinetics were analyzed by fitting the ATB^0,+-specific transport data to the Hill equation for the determination of K0.5 values for Na^+ and Cl^− (concentration of Na^+ and Cl^− necessary for half-maximal activation) and the Hill coefficient (nH; the number of Na^+ or Cl^− ions involved in the activation process). The kinetics parameters were first determined by non-linear regression methods and subsequently confirmed by linear regression methods using the commercially-available computer program SigmaPlot, version 6.0 (SPSS Inc., Chicago, Ill., US).
Therefore, it was necessary to determine whether or not the α-carboxyl esters of neutral amino acids are transportable substrates for ATB^0,+. For this purpose, we used the X. laevis oocyte expression system. Cloned rat ATB^0,+ was functionally expressed in oocytes by injection of corresponding cRNA, and the transport of substrates via the transporter was monitored by inward currents when the oocytes were exposed to putative substrates under voltage-clamp conditions.

rat ATB^0,+ [4] = target: T2, rat ATB^0,+; test: Inhibition of ATB0,+-mediated 3H-glycine uptake in HRPE cells expressing cloned rat ATB0,+; format: cell-based; conditions: for Inhibition of ATB0,+-mediated glycine transport (in words): 5 mM
[5] = tested on: MCF7 cells transfected with SMCT1 cDNA; test: Colony formation assay in MCF7 cells transfected with SMCT1 cDNA; format: cell-based, human; conditions: SMCT1-expressing MCF7 cells; for IC50: two weeks
SW480 = SW480 cells; cited from earlier work

C[C@@H](O)C(=O)O [D-lactate]
Uptake, cRNA-injected oocytes (human SLC5A8 [1]): 1.090 ± 0.041
Uptake, uninjected oocytes (human SLC5A8 [1]): 0.028 ± 0.002
K0.5 for SLC5A8 (human SLC5A8 [2]; four oocytes): 742 ± 330 µM

C[C@H](O)C(=O)O [L-lactate]
Fold increase of uptake (cRNA-injected over uninjected) (human SLC5A8 [1]): 44.7 fold
Uptake, cRNA-injected oocytes (human SLC5A8 [1]): 0.402 ± 0.026
Uptake, uninjected oocytes (human SLC5A8 [1]): 0.009 ± 0.001
Inward current induced (human SLC5A8 [2]; 5 mM, -50 mV, taken as 100%): 489±94 nA
K0.5 for SLC5A8 (human SLC5A8 [2]; four oocytes): 235 ± 24 µM

N[C@@H](CO)C(=O)O [L-serine]
Inward currents induced in ATB0,+-expressing oocytes (in words) (rat ATB^0,+ [3]): induced marked inward currents

[I-].[Na+] [NaI]
Current in SLC5A8 cRNA-injected oocytes (detectable or not) (human SLC5A8 [2]; 5 mM): did not induce any detectable current

CC(=O)OC[C@H](N)C(=O)O [O-acetyl-L-serine]
Kt of ATB0,+-mediated glycine transport in the presence of inhibitor (rat ATB^0,+ [4]; 5 mM inhibitor, HRPE cells): 133 ± 36 µM
Vmax of ATB0,+-mediated glycine transport in the presence of inhibitor (rat ATB^0,+ [4]; 5 mM inhibitor, HRPE cells): 46 ± 9 nmol/10^6 cells/30 minutes
inhibition at 5000 µM (rat ATB^0,+ [4]; 5 mM inhibitor, HRPE cells, read-out: Inhibition of ATB0,+-mediated glycine transport): ~90%
IC50 (rat ATB^0,+ [4]; glycine 10 μM, HRPE cells, read-out: IC50 for inhibition of ATB0,+-mediated glycine transport): 423 ± 72 µM
Inward currents induced in ATB0,+-expressing oocytes (in words) (rat ATB^0,+ [3]): induced marked inward currents
K0.5 (substrate concentration for half-maximal current) (rat ATB^0,+ [3]): 369 ± 25 µM

CCCC(=O)OC[C@H](N)C(=O)O [O-butyryl-L-serine, O-Butyryl-L-serine]
IC50 (rat ATB^0,+ [4]): 118 ± 8 µM
Kt of ATB0,+-mediated glycine transport in the presence of inhibitor (rat ATB^0,+ [4]; 5 mM inhibitor, HRPE cells): 102 ± 17 µM
Vmax of ATB0,+-mediated glycine transport in the presence of inhibitor (rat ATB^0,+ [4]; 5 mM inhibitor, HRPE cells): 47 ± 5 nmol/10^6 cells/30 minutes
Inhibition of ATB0,+-mediated glycine transport (in words) (rat ATB^0,+ [4]; HRPE cells): inhibited glycine transport significantly
Hill coefficient for Na+ (rat ATB^0,+ [3]; 2 mM substrate, Cl- 100 mM): 1.74±0.23
K0.5 for Na+ (rat ATB^0,+ [3]; 2 mM substrate, Cl- 100 mM): 5.02 ± 0.25 mM
Hill coefficient for Cl- (rat ATB^0,+ [3]; 2 mM substrate, Na+ 100 mM): 1.33±0.02
K0.5 for Cl- (rat ATB^0,+ [3]; 2 mM substrate, Na+ 100 mM): 6.28 ± 0.33 mM
Inward currents induced in ATB0,+-expressing oocytes (in words) (rat ATB^0,+ [3]): induced marked inward currents

CCC(=O)OC[C@H](N)C(=O)O [O-propionyl-L-serine, O-Propionyl-L-Serine]
IC50 (rat ATB^0,+ [4]): 332 ± 59 µM
Kt of ATB0,+-mediated glycine transport in the presence of inhibitor (rat ATB^0,+ [4]; 5 mM inhibitor, HRPE cells): 132 ± 37 µM
Vmax of ATB0,+-mediated glycine transport in the presence of inhibitor (rat ATB^0,+ [4]; 5 mM inhibitor, HRPE cells): 61 ± 13 nmol/10^6 cells/30 minutes
Inhibition of ATB0,+-mediated glycine transport (in words) (rat ATB^0,+ [4]; HRPE cells): inhibited glycine transport significantly
Inward currents induced in ATB0,+-expressing oocytes (in words) (rat ATB^0,+ [3]): induced marked inward currents
K0.5 (substrate concentration for half-maximal current) (rat ATB^0,+ [3]): 305 ± 31 µM

CCCC(=O)O [butyrate]
IC50 ([5]; Homo sapiens, 336 h): 37 ± 5 µM

CCCCCCCC(=O)O [octanoate]
Relative magnitude of substrate-induced currents (human SLC5A8 [2]; 5 mM, -50 mV): lowest

CCCCC(=O)O [pentanoate]
Relative magnitude of substrate-induced currents (human SLC5A8 [2]; 5 mM, -50 mV): intermediate

CCC(=O)O [propionate]
Inhibition of ATB0,+-mediated glycine transport (in words) (rat ATB^0,+ [4]; HRPE cells): did not inhibit glycine transport
Inward currents induced in ATB0,+-expressing oocytes (in words) (rat ATB^0,+ [3]): did not induce detectable current
Fold increase of uptake (cRNA-injected over uninjected) (human SLC5A8 [1]): 15.9 fold
Uptake, cRNA-injected oocytes (human SLC5A8 [1]): 0.255 ± 0.014
Uptake, uninjected oocytes (human SLC5A8 [1]): 0.016 ± 0.001
Charge-to-substrate transfer ratio (human SLC5A8 [2]; 25 μM substrate, four oocytes): 3.1±0.1
Hill coefficient (h) for Na+ (human SLC5A8 [2]; 5 mM substrate): 2.0±0.1
Relative magnitude of substrate-induced currents (human SLC5A8 [2]; 5 mM, -50 mV): maximal
K0.5 for SLC5A8 (human SLC5A8 [2]; four oocytes): 127 ± 14 µM
Effect on cell growth / apoptosis [5]: induce apoptosis
IC50 [5]: 205 ± 40 µM

CC(=O)C(=O)O [pyruvate]
IC50 ([5]; Homo sapiens, 336 h): 72 ± 12 µM

EGF: growth factor used as mitogenic stimulus in SW480 cells
Cell proliferation (SW480): 27%
Increase of Na+-dependent arginine transport (SW480): 66%

TGF-α: growth factor used as mitogenic stimulus in SW480 cells
Cell proliferation (SW480): 37%
Increase of Na+-dependent arginine transport (SW480): 100%
